US8623902B2, “Microbiocides” (Syngenta Crop Protection, LLC, priority 2008, dated 2014)

Key:
Puccinia recondita [1] = assay: Protective action against Puccinia recondita (brown rust) on wheat; type: in vivo; conditions: foliar, 192 h, wheat leaf segments sprayed with 0.02% active ingredient, assessed 8 days after inoculation, read-out: preventive fungicidal activity (inhibition)
Description: (§1) Protective Action Against Puccinia recondita (Brown Rust) on Wheat Wheat leaf segments are placed on agar in multiwell plates (24-well format) and sprayed with test solutions (0.02% active ingredient). After drying, the leaf disks are inoculated with a spore suspension of the fungus. After appropriate incubation the activity of a compound is assessed 8 days after inoculation as preventive fungicidal activity.

Pyrenophora teres = assay: Action against Pyrenophora teres (net blotch) on barley; type: in vivo; conditions: foliar, 96 h, barley leaf segments sprayed with 0.02% active ingredient, assessed 4 days after inoculation, read-out: preventive fungicidal activity (inhibition)
Description: as §1, with “Action” for “Protective Action”, “Pyrenophora teres (Net Blotch)” for “Puccinia recondita (Brown Rust)”, “Barley Barley” for “Wheat Wheat”, “4” for “8”

Septoria tritici = assay: Action against Septoria tritici - fungal growth assay; type: cell-based; conditions: Zymoseptoria tritici; 0.002% active ingredient, PDB broth, 24° C., photometric after 72 hrs
Description: (§2) Action Against Septoria tritici—Fungal Growth Assay Conidia of the fungus from cryogenic storage are directly mixed into nutrient broth (PDB potato dextrose broth). After placing a (DMSO) solution of the test compounds (0.002% active ingredient) into a microtiter plate (96-well format) the nutrient broth containing the fungal spores is added. The test plates are incubated at 24° C. and the inhibition of growth is determined photometrically after 72 hrs. The activity of a compound is expressed as fungal growth inhibition (0=no growth inhibition, ratings of 80% to 99% mean good to very good inhibition, 100%=complete inhibition).

[2] = system: Mycosphaerella arachidis (early leaf spot of groundnut; Cercospora arachidicola [anamorph]); assay: Action against Mycosphaerella arachidis - fungal growth assay; type: cell-based; conditions: 0.002% active ingredient, PDB broth, 24° C., photometric after 6-7 days
Description: as §2, with “Mycosphaerella arachidis (Early Leaf Spot of Groundnut; Cercospora arachidicola [anamorph])—Fungal” for “Septoria tritici—Fungal”, “measured” for “determined”, “6-7 days.” for “72 hrs.”

Rhizoctonia solani = assay: Action against Rhizoctonia solani - fungal growth assay; type: cell-based; conditions: 0.002% active ingredient, PDB broth, 24° C., photometric after 3-4 days
Description: as §2, with “Rhizoctonia solani—Fungal” for “Septoria tritici—Fungal”, “Mycelial fragments of a newly grown liquid culture” for “Conidia”, “fungus” for “fungus from cryogenic storage”, “measured” for “determined”, “3-4 days.” for “72 hrs.”

Botrytis cinerea = assay: Action against Botrytis cinerea - fungal growth assay; type: cell-based; conditions: 0.002% active ingredient, PDB broth, 24° C., photometric after 3-4 days
Description: as §2, with “Botrytis cinerea—Fungal” for “Septoria tritici—Fungal”, “measured” for “determined”, “3-4 days.” for “72 hrs.”

[3] = system: Erysiphe graminis f.sp. tritici; assay: Action against Erysiphe graminis f.sp. tritici (wheat powdery mildew), wheat leaf segments; type: in vivo; conditions: Blumeria graminis, foliar, 168 h; wheat leaf segments sprayed with 0.02% active ingredient, assessed 7 days after inoculation; read-out: preventive fungicidal activity (inhibition)
Description: as §1, with “Action” for “Protective Action”, “Erysiphe graminis f.sp. tritici (Wheat Powdery Mildew)” for “Puccinia recondita (Brown Rust) on Wheat”, “7” for “8”

Puccinia recondita [4] = assay: Curative action against Puccinia recondita (brown rust) on wheat; type: in vivo; conditions: foliar, wheat leaf segments sprayed with 0.02% active ingredient one day after inoculation, assessed 8 days after inoculation, read-out: curative fungicidal activity (inhibition)
Description: Curative Action Against Puccinia recondita (Brown Rust) on Wheat Wheat leaf segments are placed on agar in multiwell plates (24-well format) and inoculated with a spore suspension of the fungus. One day after inoculation the leaf segments are sprayed with test solutions (0.02% active ingredient). After appropriate incubation the activity of a compound is assessed 8 days after inoculation as curative fungicidal activity.

[5] = system: Leptosphaeria nodorum (Septoria nodorum); assay: Action against Leptosphaeria nodorum (Septoria nodorum; glume blotch) on wheat; type: in vivo; conditions: Parastagonospora nodorum, foliar, 96 h; wheat leaf segments sprayed with 0.02% active ingredient, assessed 4 days after inoculation; read-out: preventive fungicidal activity (inhibition)
Description: as §1, with “Action” for “Protective Action”, “Leptosphaeria nodorum (Septoria nodorum; Glume Blotch)” for “Puccinia recondita (Brown Rust)”, “4” for “8”

[6] = system: Monographella nivalis (anamorph: Fusarium nivale, Microdochium nivale; snow mould); assay: Action against Monographella nivalis - fungal growth assay; type: cell-based; conditions: 0.002% active ingredient, PDB broth, 24° C., photometric after 72 hrs
Description: as §2, with “Monographella nivalis (Anamorph: Fusarium nivale, Microdochium nivale; Snow Mould)—Fungal” for “Septoria tritici—Fungal”, “DMSO-solution” for “(DMSO) solution”, “measured” for “determined”, “hrs” for “hrs. The activity of a compound is expressed as fungal growth inhibition”

With `CO/N=C/c1cc(Cl)c(OC[C@@H]2CCCN2C(=O)c2cn(C)nc2C(F)F)c(Cl)c1` [Compound 1.021, 3,5-dichloro-4-[(S)-1-(3-difluoromethyl-1-methyl-1H-pyrazole-4-carbonyl)-pyrrolidin-2-ylmethoxy]-benzaldehyde O-methyl-oxime] the inhibition at 0.02 % strength (Puccinia recondita [1]) was ≥ 80%, the inhibition at 0.02 % strength (Pyrenophora teres) was ≥ 80% and the inhibition at 0.002 % strength (Septoria tritici) was ≥ 80%. The inhibition at 0.002 % strength [2] was ≥ 80%, the inhibition at 0.002 % strength (Rhizoctonia solani) was ≥ 50% and the inhibition at 0.002 % strength (Botrytis cinerea) was ≥ 80%.
With `Cn1cc(C(=O)N2CCC[C@H]2C(=O)c2ccc(Cl)cc2)c(C(F)F)n1` [Compound 1.259, (4-chloro-phenyl)-[(S)-1-(3-difluoromethyl-1-methyl-1H-pyrazole-4-carbonyl)-pyrrolidin-2-yl]-methanone] the inhibition at 0.02 % strength (Pyrenophora teres) was ≥ 50%.
For `Cn1cc(C(=O)N2CCCC2Cc2c(Cl)cccc2Cl)c(C(F)F)n1` (centres unmarked) [Compound 1.110, [2-(2,6-dichloro-benzyl)-pyrrolidin-1-yl]-(3-difluoromethyl-1-methyl-1H-pyrazol-4-yl)-methanone], the inhibition at 0.02 % strength [3] was ≥ 50%, the inhibition at 0.02 % strength (Pyrenophora teres) was ≥ 80% and the inhibition at 0.002 % strength (Septoria tritici) was ≥ 80%. The inhibition at 0.002 % strength [2] was ≥ 80%.
In the case of `Cc1cccc(C)c1OC[C@@H]1CCCN1C(=O)c1cn(C)nc1C(F)F` [Compound 1.068], the inhibition at 0.02 % strength (Puccinia recondita [1]) is reported as ≥ 80%, the inhibition at 0.02 % strength [3] is reported as ≥ 80% and the inhibition at 0.02 % strength (Pyrenophora teres) is reported as ≥ 80%. For the same molecule, the inhibition at 0.002 % strength (Septoria tritici) was ≥ 80%, the inhibition at 0.002 % strength [2] was ≥ 80% and the inhibition at 0.002 % strength (Rhizoctonia solani) was ≥ 50%. For the same molecule, the melting point was 137 to 140 °C, the inhibition at 0.002 % strength (Botrytis cinerea) was ≥ 80% and the inhibition at 0.02 % strength (Puccinia recondita [4]) was ≥ 80%. For the same molecule, the inhibition at 0.02 % strength [5] was ≥ 50%.
For `Cn1cc(C(=O)N2CCC[C@H]2COc2c(Cl)cc(Cl)cc2Cl)c(C(F)F)n1` [Compound 1.006], the inhibition at 0.02 % strength (Puccinia recondita [1]) was ≥ 80%, the inhibition at 0.002 % strength [6] was ≥ 50% and the inhibition at 0.02 % strength [3] was ≥ 80%. For the same molecule, the inhibition at 0.02 % strength (Pyrenophora teres) was ≥ 80%, the inhibition at 0.002 % strength (Septoria tritici) was ≥ 80% and the inhibition at 0.002 % strength [2] was ≥ 80%. The inhibition at 0.002 % strength (Rhizoctonia solani) was ≥ 50%, the inhibition at 0.002 % strength (Botrytis cinerea) was ≥ 80% and the inhibition at 0.02 % strength (Puccinia recondita [4]) was ≥ 80%. For the same molecule, the inhibition at 0.02 % strength [5] was ≥ 50%.
With `Cn1cc(C(=O)N2CCC[C@H]2C(F)c2ccc(Cl)cc2)c(C(F)F)n1` (stereo partly drawn) [Compound 1.215, {(S)-2-[(4-chlorophenyl)-fluoro-methyl]-pyrrolidin-1-yl}-(3-difluoromethyl-1-methyl-1H-pyrazol-4-yl)-methanone] the inhibition at 0.02 % strength (Pyrenophora teres) was ≥ 80%, the inhibition at 0.002 % strength (Septoria tritici) was ≥ 80% and the inhibition at 0.002 % strength [2] was ≥ 80%. For the same molecule, the inhibition at 0.02 % strength [5] was ≥ 50%.
